Assay results reported in patent US9260417B2, “Therapeutic methods and compositions involving allosteric kinase inhibition” (AMITECH THERAPEUTIC SOLUTIONS, INC., priority 2010, dated 2016).

Columns and labels:
[1] = test system: VEGF-C induced lymphangiogenesis; assay: Lymph node lymphangiogenesis model (VEGF-C Matrigel); type: in vivo, mice; settings: 200 μl of 5.25 mg/ml ip twice daily, 7 days
Description: (FIG. 12A) Images of local lymph node lymphangiogenesis model between saline and VEGF-C matrigel.
Lymphangiogenesis assays were performed by subcutaneously injecting 350 μl of cold Matrigel containing saline or […] of VEGF-C(R&D Systems, Minneapolis, Minn.) into wild-type C57B1/6 mice. […] After 7 days, lymph nodes were removed, embedded in OCT, frozen and sectioned. Thin sections (5 μm) were fixed in ice cold acetone for five minutes, permeabilized in 0.1% Triton X-100 in phosphate buffered saline (PBS), blocked in 8% normal donkey serum diluted in PBS for 1.5 hours at room temperature and then incubated with 2 μg/ml anti-murine Lyve-1 (RDI-103PA50) in 8% normal donkey serum diluted in saline overnight at 4° C. After extensive washing, slides were incubated with 1 μg/ml cross-absorbed donkey anti-rabbit IgG (H+L) conjugated with Alexa Fluor 488 (Invitrogen). Slides were counterstained with DAPI. Coverslips were mounted with Dako Cytomation fluorescent mounting medium (Dako Corporation, Carpinteria, Calif.). At least five microscopic fields per tissue section/mouse were analyzed for quantification studies.

[2] = test system: SN12C-RFP renal cells; assay: Orthotopic renal cell carcinoma model; type: in vivo, mice; settings: 100 mg/kg, po, qd; day 26 (vehicle 132±39 mg)
Excerpt: (FIG. 10A) Real-time fluorescent imaging of SN12C-RFP renal cells orthotopically injected into […] of nu/nu mice. […] Drug treatments were started 7 days after orthotopic injection and tumor growth was visualized every 7 days by whole animal imaging. The images shown are of 4 mice in the vehicle and drug treated groups on day 26. Scale bar=10 mm. (FIG. 10B) At the end of the study, both the left tumor bearing kidney and right kidney were extracted and weighed.
Male Nu/Nu mice were anesthetized with an intraperitoneal injection of 50 mg/kg ketamine and […] medetomidine. A small incision was made along the left flank of the mice and the kidney was exposed. A 27-gauge insulin syringe was used for orthotopic injection of the SN12C-RFP cells. One million tumor cells in 20 μl of a 1:1 PBS:Matrigel mixture were injected into the lower pole of the kidney just below the renal subcapsule. […]
To test the effects of 6 on tumor growth after oral administration, human SN12C renal cells expressing RFP were injected into the kidney capsule of nude mice and tumors were allowed to develop for 7 days. […] Suppression of tumor growth was readily observed in those animals treated with 6 (FIG. 10A). On day 26, the kidneys were excised from these animals and the weight due to tumor was calculated by subtracting the weight of the normal kidney from the weight of the tumor-bearing kidney for each animal.

[3] = biological target: KIT(V559D, V654A) (Homo sapiens (Human), UniProt P10721, V559D/V654A); assay: KINOMEscan competitive binding assay; settings: 10 uM
Sequence of KIT(V559D, V654A) (P10721 26-976 V559D/V654A): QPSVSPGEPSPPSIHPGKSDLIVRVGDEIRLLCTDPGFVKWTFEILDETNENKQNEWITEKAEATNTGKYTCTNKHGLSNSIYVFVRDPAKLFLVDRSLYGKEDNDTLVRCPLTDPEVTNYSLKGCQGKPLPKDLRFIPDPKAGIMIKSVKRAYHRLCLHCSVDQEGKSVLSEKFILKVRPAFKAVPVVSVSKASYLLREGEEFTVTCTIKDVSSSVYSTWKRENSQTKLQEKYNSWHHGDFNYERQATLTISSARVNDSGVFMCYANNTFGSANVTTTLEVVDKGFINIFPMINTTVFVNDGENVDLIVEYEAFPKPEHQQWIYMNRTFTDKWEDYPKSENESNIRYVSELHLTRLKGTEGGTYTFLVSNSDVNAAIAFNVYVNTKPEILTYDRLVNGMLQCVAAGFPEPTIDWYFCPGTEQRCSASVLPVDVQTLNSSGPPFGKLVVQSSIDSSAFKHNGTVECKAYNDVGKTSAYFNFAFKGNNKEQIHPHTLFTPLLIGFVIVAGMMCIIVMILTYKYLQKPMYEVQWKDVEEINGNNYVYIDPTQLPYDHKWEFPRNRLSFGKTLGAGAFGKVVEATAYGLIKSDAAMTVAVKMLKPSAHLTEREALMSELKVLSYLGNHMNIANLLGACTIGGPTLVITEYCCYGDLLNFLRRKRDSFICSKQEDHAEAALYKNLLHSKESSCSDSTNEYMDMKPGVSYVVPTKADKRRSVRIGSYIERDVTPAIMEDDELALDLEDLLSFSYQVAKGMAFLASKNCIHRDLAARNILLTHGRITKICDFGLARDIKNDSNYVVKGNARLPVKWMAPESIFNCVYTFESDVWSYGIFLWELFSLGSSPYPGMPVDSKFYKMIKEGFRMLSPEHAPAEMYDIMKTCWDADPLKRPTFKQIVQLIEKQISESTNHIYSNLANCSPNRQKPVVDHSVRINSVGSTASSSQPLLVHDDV
Excerpt: (§1) In vitro kinase screen and competitive binding assay. Sorafenib as well as test compounds were submitted to Invitrogen and screened using their SelectScreen™ Profiling Service.

[4] = biological target: AMPK-alpha1 (Homo sapiens (Human), UniProt Q13131); assay: KINOMEscan competitive binding assay; settings: 10 uM
Excerpt: as §1

[5] = biological target: AXL (Homo sapiens (Human), UniProt P30530); assay: KINOMEscan competitive binding assay; settings: 10 uM
Excerpt: as §1

[6] = biological target: MEK1 (Homo sapiens (Human), UniProt Q02750); assay: KINOMEscan competitive binding assay; settings: 10 uM
Sequence of MEK1 (Q02750 whole entry): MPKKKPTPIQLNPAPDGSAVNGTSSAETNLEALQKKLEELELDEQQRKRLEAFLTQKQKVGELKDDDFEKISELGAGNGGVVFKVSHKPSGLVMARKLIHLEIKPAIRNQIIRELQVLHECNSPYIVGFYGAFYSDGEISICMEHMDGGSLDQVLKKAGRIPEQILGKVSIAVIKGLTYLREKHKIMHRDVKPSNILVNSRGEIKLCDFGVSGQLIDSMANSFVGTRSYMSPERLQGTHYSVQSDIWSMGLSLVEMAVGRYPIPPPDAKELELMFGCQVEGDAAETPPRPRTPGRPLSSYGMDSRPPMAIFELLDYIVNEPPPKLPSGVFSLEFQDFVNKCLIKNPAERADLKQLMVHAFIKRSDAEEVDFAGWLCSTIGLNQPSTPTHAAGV
Excerpt: as §1

[7] = biological target: CDK7 (Homo sapiens (Human), UniProt P50613); assay: KINOMEscan competitive binding assay; settings: 10 uM
Sequence of CDK7 (P50613 whole entry): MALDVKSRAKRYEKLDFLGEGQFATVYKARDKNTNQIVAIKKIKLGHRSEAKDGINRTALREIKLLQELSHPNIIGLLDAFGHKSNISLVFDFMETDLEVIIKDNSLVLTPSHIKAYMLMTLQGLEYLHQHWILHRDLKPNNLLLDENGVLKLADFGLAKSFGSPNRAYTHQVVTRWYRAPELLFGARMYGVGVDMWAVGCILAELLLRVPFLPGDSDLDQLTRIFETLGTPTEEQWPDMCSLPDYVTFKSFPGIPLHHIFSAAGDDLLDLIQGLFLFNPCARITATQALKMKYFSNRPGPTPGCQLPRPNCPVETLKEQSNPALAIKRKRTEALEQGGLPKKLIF
Excerpt: as §1

[8] = biological target: ERK2 (Homo sapiens (Human), UniProt P28482); assay: KINOMEscan competitive binding assay; settings: 10 uM
Sequence of ERK2 (P28482 whole entry): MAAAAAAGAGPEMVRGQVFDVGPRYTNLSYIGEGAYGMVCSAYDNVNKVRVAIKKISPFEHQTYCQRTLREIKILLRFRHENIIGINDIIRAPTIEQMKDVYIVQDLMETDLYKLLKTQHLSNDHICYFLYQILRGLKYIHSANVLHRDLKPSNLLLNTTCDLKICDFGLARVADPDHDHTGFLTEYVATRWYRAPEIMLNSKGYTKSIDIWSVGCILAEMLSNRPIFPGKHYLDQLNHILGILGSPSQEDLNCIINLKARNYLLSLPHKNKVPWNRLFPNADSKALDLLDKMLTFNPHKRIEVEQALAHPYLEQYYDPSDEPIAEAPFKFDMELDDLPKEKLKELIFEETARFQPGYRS
Excerpt: as §1

[9] = biological target: FLT3 D835Y (Homo sapiens (Human), UniProt P36888, D835Y); assay: KINOMEscan competitive binding assay; settings: 10 uM
Excerpt: as §1

[10] = biological target: FAK (Homo sapiens (Human), UniProt Q05397); assay: KINOMEscan competitive binding assay; settings: 10 uM
Excerpt: as §1

[11] = biological target: INSR (Homo sapiens (Human), UniProt P06213); assay: KINOMEscan competitive binding assay; settings: 10 uM
Sequence of INSR (P06213 28-1382): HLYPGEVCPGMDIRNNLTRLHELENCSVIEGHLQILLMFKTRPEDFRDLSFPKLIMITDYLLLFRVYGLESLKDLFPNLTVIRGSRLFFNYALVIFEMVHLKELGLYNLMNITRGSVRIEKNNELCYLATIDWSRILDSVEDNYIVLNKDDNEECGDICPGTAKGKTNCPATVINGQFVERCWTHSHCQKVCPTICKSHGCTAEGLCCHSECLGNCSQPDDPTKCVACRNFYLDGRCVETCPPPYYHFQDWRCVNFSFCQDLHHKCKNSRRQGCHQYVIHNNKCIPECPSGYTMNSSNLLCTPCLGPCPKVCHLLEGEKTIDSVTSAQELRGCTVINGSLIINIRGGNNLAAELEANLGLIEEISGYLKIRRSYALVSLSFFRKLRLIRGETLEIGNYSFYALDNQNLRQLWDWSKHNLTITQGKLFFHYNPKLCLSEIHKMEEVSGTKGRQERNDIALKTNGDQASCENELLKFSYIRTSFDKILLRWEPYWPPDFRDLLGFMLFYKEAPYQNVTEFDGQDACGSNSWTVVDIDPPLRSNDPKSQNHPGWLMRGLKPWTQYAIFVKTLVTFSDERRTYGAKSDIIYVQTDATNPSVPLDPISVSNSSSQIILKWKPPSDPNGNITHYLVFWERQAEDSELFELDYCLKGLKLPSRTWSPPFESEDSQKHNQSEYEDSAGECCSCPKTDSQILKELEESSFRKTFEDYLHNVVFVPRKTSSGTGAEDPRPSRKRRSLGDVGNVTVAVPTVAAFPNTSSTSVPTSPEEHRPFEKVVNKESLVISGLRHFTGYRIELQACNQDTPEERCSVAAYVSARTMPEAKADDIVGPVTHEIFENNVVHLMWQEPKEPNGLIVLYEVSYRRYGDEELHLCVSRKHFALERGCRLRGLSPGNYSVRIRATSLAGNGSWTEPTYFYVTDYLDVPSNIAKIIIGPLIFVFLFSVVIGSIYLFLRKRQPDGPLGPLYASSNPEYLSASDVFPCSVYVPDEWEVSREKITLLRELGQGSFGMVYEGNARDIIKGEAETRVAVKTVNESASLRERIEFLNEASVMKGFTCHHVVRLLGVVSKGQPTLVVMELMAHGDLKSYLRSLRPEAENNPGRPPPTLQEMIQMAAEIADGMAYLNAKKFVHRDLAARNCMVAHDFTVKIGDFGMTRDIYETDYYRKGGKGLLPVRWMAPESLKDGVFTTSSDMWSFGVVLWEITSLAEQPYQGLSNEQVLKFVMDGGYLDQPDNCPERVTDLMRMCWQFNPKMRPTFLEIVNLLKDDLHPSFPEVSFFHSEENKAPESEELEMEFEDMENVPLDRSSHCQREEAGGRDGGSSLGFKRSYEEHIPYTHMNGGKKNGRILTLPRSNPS
Excerpt: as §1

[12] = test system: KIT(D616V); assay: KINOMEscan competitive binding assay; settings: 10 uM
Excerpt: as §1

[13] = biological target: PIK3CA (Homo sapiens (Human), UniProt P42336); assay: KINOMEscan competitive binding assay; settings: 10 uM
Sequence of PIK3CA (P42336 whole entry): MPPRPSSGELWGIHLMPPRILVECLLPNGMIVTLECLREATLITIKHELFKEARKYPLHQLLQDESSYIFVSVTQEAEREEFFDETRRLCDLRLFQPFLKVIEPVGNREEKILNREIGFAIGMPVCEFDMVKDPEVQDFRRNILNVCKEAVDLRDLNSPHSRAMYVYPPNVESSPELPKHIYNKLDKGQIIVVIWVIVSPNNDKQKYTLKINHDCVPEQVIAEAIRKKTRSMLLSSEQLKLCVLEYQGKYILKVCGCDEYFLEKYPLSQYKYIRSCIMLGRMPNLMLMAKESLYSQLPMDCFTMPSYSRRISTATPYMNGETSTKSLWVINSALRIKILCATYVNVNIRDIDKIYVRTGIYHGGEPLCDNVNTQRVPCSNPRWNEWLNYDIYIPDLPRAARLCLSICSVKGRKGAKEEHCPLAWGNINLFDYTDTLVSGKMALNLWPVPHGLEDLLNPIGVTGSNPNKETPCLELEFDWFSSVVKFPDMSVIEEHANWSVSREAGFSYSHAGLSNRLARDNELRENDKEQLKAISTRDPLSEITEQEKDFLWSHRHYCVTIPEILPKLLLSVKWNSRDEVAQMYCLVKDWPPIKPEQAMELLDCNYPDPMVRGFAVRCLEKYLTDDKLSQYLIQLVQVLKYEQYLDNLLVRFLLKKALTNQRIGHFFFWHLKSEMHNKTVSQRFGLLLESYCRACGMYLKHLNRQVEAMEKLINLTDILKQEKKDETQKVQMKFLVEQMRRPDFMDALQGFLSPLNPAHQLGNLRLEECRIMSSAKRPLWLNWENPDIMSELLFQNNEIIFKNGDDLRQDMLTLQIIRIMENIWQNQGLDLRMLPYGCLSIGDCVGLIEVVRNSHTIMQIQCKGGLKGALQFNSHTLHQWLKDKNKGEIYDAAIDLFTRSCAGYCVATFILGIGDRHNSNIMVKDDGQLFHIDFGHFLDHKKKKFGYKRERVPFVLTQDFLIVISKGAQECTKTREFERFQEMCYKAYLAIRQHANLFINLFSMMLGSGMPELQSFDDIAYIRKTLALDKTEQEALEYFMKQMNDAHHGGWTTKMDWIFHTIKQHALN
Excerpt: as §1

[14] = biological target: CDK2 (Homo sapiens (Human), UniProt P24941); assay: KINOMEscan competitive binding assay; settings: 10 uM
Excerpt: as §1

[15] = biological target: PFTK1 (Homo sapiens (Human), UniProt O94921); assay: KINOMEscan competitive binding assay; settings: 10 uM
Sequence of PFTK1 (O94921 whole entry): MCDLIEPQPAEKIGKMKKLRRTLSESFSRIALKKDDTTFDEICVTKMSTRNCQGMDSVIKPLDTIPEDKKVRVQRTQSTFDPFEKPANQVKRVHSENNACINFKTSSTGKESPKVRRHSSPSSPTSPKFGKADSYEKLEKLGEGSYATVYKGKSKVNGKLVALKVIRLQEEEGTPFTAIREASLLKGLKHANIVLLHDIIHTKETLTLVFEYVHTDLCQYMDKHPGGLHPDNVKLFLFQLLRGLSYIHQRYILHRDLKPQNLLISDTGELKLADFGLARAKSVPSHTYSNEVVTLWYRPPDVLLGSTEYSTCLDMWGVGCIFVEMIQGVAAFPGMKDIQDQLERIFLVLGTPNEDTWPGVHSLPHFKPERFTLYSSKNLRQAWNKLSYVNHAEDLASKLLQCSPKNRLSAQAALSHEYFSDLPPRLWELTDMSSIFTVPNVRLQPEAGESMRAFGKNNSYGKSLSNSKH

CSc1nc(N)cc(Oc2ccc(-c3nnc(Nc4cccc(C(F)(F)F)c4)[nH]3)cc2)n1 [Compound 6]
lymphangiogenesis in lymph nodes [1]: clearly showed inhibition of lymphangiogenesis
average tumor burden (tumor-bearing kidney minus normal kidney weight) [2]: 49 ± 18 mg
% Control [3]: 15%
% Control [4]: 72%
% Control [5]: 87%
% Control [6]: 84%
% Control [7]: 97%
% Control [8]: 90%
% Control [9]: 18%
% Control [10]: 100%
% Control [11]: 100%
% Control [12]: 76%
% Control [13]: 100%
% Control [14]: 87%
% Control [15]: 71%
